Several values for one entry are separate records, joined by “and”; a condition that tells them apart may be missing. Equal values may be shown once.
Columns and labels:
[1] = target: T1, rat adrenergic α1B receptor (Rattus norvegicus, UniProt P15823); experiment: Radioligand binding, adrenergic α1B ([3H]Prazosin); design: species or system Wistar Rat; details: for Percentage inhibition of ligand binding, Adrenergic α1B (0.1 μM): compound at 0.1 μM
T1 construct: rat adrenergic α1B receptor obtained from Wistar Rat liver; from tissue; host or cells: Wistar rat liver
T1 sequence (P15823 1-515): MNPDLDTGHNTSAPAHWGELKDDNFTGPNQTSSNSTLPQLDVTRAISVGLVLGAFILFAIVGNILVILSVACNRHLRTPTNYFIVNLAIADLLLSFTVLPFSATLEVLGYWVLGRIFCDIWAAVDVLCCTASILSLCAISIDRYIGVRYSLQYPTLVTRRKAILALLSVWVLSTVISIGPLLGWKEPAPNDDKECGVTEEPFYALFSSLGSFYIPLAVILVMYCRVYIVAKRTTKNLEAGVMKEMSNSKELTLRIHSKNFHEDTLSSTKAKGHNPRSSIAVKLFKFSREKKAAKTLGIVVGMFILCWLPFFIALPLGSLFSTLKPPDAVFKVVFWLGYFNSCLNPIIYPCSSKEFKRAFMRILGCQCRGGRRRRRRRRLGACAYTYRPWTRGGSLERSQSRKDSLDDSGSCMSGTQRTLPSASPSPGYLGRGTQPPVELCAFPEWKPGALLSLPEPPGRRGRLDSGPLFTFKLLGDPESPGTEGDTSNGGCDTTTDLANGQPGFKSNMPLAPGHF
Summary of the method: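 Incubation ran 60 min at 25 °C in Tris-HCl buffer (50 mM, pH 7.4, 0.5 mM EDTA) with Wistar rat liver α1B receptor. 10 μM phentolamine set non-specific binding.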

[2] = target: T2, human recombinant adrenergic α2B receptor (Homo sapiens, UniProt P18089); experiment: Radioligand binding, adrenergic α2B ([3H]Rauwolscine); details: 0.03 µM; for Percentage inhibition of ligand binding, Adrenergic α2B (0.03 μM): compound at 0.03 μM, repeat datapoints each shown
T2 construct: expressed in transfected cells; host or cells: CHO-K1
T2 sequence (P18089 1-450): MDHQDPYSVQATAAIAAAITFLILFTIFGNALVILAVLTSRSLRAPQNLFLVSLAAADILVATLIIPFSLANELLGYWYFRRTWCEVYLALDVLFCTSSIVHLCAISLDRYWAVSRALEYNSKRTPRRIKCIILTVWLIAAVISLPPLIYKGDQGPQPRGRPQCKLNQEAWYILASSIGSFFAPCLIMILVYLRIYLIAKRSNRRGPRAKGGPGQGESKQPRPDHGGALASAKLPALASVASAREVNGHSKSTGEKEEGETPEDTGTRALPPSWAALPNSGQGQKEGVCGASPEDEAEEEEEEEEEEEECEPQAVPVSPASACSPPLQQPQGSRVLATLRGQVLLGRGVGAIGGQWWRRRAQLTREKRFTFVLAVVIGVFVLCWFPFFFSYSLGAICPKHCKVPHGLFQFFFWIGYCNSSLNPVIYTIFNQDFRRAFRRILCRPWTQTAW
Summary of the method: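 Values are percent inhibition of specific radioligand binding. The receptor, expressed in CHO-K1 cells, was exposed to 2.5 nM [3H]Rauwolscine at 25° C for 60 min, with 10 μM Prazosin marking non-specific binding.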

[3] = target: T3, human recombinant adrenergic α2A receptor (Homo sapiens, UniProt P08913); experiment: Radioligand binding, adrenergic α2A ([3H]MK-912); details: [3H]MK-912; for Percentage inhibition of ligand binding, Adrenergic α2A (0.1 μM): compound at 0.1 μM
T3 construct: expressed in transfected cells; host or cells: insect Sf9 cells
T3 sequence (P08913 1-465): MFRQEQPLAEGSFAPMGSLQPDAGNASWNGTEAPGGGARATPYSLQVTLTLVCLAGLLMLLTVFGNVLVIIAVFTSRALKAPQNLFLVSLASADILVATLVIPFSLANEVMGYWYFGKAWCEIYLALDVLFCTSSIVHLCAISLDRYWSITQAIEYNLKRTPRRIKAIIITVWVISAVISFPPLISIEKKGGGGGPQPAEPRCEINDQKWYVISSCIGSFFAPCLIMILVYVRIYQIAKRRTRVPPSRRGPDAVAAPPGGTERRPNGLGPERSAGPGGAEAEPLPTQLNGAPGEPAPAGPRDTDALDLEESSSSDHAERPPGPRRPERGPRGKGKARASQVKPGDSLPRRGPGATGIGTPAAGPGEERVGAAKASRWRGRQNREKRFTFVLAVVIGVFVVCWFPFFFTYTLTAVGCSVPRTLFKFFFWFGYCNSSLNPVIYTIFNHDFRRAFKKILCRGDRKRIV
Summary of the method: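 Sf9-expressed receptor was incubated with compound for 60 min at 25 °C in modified Tris-HCl buffer, pH 7.4. Nonspecific binding was taken as that remaining with 10 μM WB-4101.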

[4] = repeat datapoints each shown, 0.1 µM
[5] = compound at 0.03 μM, repeat datapoints each shown

Compound	Percentage inhibition of ligand binding, Adrenergic α1B (0.1 μM) [1, 4]	Percentage inhibition of ligand binding, Adrenergic α2B (0.03 μM) [2]	Percentage inhibition of ligand binding, Adrenergic α2A (0.1 μM) [3, 4]	Percentage inhibition of ligand binding, Adrenergic α1B (0.03 μM) [1, 5] [%]	Percentage inhibition of ligand binding, Adrenergic α2A (0.03 μM) [3, 5] [%]	Percentage inhibition of ligand binding, Adrenergic α1B ([1]; 0.1 μM compound, 0.1 µM) [%]	Percentage inhibition of ligand binding, Adrenergic α2B ([2]; 0.03 μM compound) [%]	Percentage inhibition of ligand binding, Adrenergic α2A ([3]; 0.1 μM compound, 0.1 µM) [%]	Percentage inhibition of ligand binding, Adrenergic α1B (0.1 μM) ([1]; repeat datapoints each shown) [%]
CN1CCc2c(c3cc(Cl)ccc3n2CC(O)c2ccncc2)C1 (single isomer, unassigned) [4b]	58%	46%	7%						
Cc1ccc2c(c1)c1c(n2CC(O)c2ccccn2)CN(C)CC1 (single isomer, unassigned) [22b]	9%	30%	0%						
CN1CCc2c(c3cc(Cl)ccc3n2CC(C)(O)c2cccnc2)C1 (single isomer, unassigned) [31a]	25% and 28%	93% and 97%	19% and 27%	16	11				
Cc1ccc2c(c1)c1c(n2CC(O)c2ccncc2)CCN2CCCCC12 (single isomer, unassigned) [47c]	6%	53%	4%						
Cc1ccc2c(c1)c1c(n2CC(O)c2ccncc2)CC2CCCN2C1 (single isomer, unassigned) [76d]	51%	91%	40%						
Cc1ccc2c(c1)c1c(n2CC(C)(OC(=O)C(C)C)c2cccnc2)CCN(C)C1 (single isomer, unassigned) [146a]						41	37	−1	
CN1CCc2c(c3cccc(Br)c3n2CC(O)c2ccncc2)C1 (single isomer, unassigned) [48b]	14%	86%	17%						
OC(Cn1c2c(c3cccnc31)CN1CCCC1C2)c1ccncc1 (single isomer, unassigned) [37c]	2%	0%	6%						
CCC1c2c(c3cc(C)ccc3n2CC(O)c2ccncc2)C2CCN1C2 (single isomer, unassigned) [36a]	14%	33%	8%						
CN1CCc2c(n(CC(O)c3ccncc3)c3ccc(Cl)cc23)C1 (single isomer, unassigned) [41b]	50%	50%	8%						
Cc1ccc2c(c1)c1c(n2CC(C)(O)c2cccnc2)CCNC1 (single isomer, unassigned) [24b]		29%	15%						8
Cc1ccc2c(c1)c1c(n2CC(C)(O)c2cccnc2)CCNC1 (single isomer, unassigned) [24a]		63%	8%						8

From patent US9550782B2, “Compounds and methods for treating diabetes” (Medivation Technologies, Inc., priority 2011, dated 2017)
